Results as given in US20070027130A1, “Tricyclic 6-alkylidene-penem beta-lactamase inhibitors and beta-lactam antibiotic combination: a broad spectrum antibiotic” (priority 2005, published 2007).
Converted amounts (≈) assume the structure as drawn.

Tests used:
[1] = tested on: E. aerogenes 1697-MP GC 7845 AmpC; test: MIC microbroth dilution; type: cell-based; conditions: Klebsiella aerogenes; E. aerogenes GC 7845; β-lactamase class C; MHBII, 35° C. 18 hr; read-out: Minimal Inhibitory Concentration
Experimental: (§1) The in vitro activities of the antibiotics were determined by the microbroth dilution method as recommended by the National Committee for Clinical Laboratory Standards (NCCLS). (NCCLS. 2000. Methods for Dilution Antimicrobial Susceptibility Tests for Bacteria That Grow Aerobically; Approved Standards: M7-A5, vol. 19. National Committee for Clinical Laboratory Standards, Villanova, Pa.). Mueller-Hinton II broth (MHBII) (BBL Cockeysville, Md.), was used for the testing procedure. […]. The plates were incubated for 18-22 hours at 35 C. in ambient air.

[2] = tested on: E. cloacae GC 7052 SHV-5, Amp C inducable; test: MIC microbroth dilution; type: cell-based; conditions: Enterobacter cloacae, β-lactamase class A (ESBL), MHBII, 35° C. 18 hr, read-out: Minimal Inhibitory Concentration
Experimental: as §1

[3] = tested on: E. coli GAR 5929 TEM, OXA, Act-1 , CTX (By PCR only); test: MIC microbroth dilution; type: cell-based; conditions: Escherichia coli, β-lactamase class A, C, D, MHBII, 35° C. 18 hr, read-out: Minimal Inhibitory Concentration
Experimental: as §1

E. coli GC 6539 CMY-2 = test: MIC microbroth dilution; type: cell-based; conditions: Escherichia coli, GC6539CMY2, β-lactamase class C, MHBII, 35° C. 18 hr, read-out: Minimal Inhibitory Concentration
Experimental: as §1

K. pn GC 6639 (SHV-13) = test: MIC microbroth dilution; type: cell-based; conditions: Klebsiella pneumoniae, β-lactamase class A (ESBL), MHBII, 35° C. 18 hr, read-out: Minimal Inhibitory Concentration
Experimental: as §1

[4] = tested on: K. pn GC 6657 (TEM-1 + SHV-27); test: MIC microbroth dilution; type: cell-based; conditions: Klebsiella pneumoniae, β-lactamase class A, A (ESBL), MHBII, 35° C. 18 hr, read-out: Minimal Inhibitory Concentration
Experimental: as §1

[5] = tested on: K. pneumoniae GC 2826 Act 1 + 3 additional; test: MIC microbroth dilution; type: cell-based; conditions: Klebsiella pneumoniae, β-lactamase class A, A (ESBL), C, MHBII, 35° C. 18 hr, read-out: Minimal Inhibitory Concentration
Experimental: as §1

[6] = tested on: K. pneumoniae GC 7636 TEM-1 KPC-2 SHV-12; test: MIC microbroth dilution; type: cell-based; conditions: Klebsiella pneumoniae, 18 h, read-out: Minimal Inhibitory Concentration
Experimental: as §1

[7] = tested on: K. pneumoniae GC 7821 DHA 1; test: MIC microbroth dilution; type: cell-based; conditions: Klebsiella pneumoniae, GC7821DHA1, β-lactamase class C, MHBII, 35° C. 18 hr, read-out: Minimal Inhibitory Concentration
Experimental: as §1

[8] = tested on: P. aeruginosa GC 1763 AmpC-inducible; test: MIC microbroth dilution; type: cell-based; conditions: Pseudomonas aeruginosa, β-lactamase class C, MHBII, 35° C. 18 hr, read-out: Minimal Inhibitory Concentration
Experimental: as §1

[9] = tested on: P. aeruginosa PT 9025 PTZ-R; test: MIC microbroth dilution; type: cell-based; conditions: Pseudomonas aeruginosa, PT9025PTZR, 18 h, read-out: Minimal Inhibitory Concentration
Experimental: as §1

[10] = tested on: P. aeruginosa PT 9587 PTZ-R; test: MIC microbroth dilution; type: cell-based; conditions: Pseudomonas aeruginosa, PT9587PTZR; P. aeruginosa PT 9587, piperacillin-tazobactam-resistant; MHBII, 35° C. 18 hr; read-out: Minimal Inhibitory Concentration
Experimental: as §1

[11] = tested on: S. marcescens GC 1781 (Sme-1 + AmpC); test: MIC microbroth dilution; type: cell-based; conditions: Serratia marcescens, β-lactamase class A (Cb'ase), C, MHBII, 35° C. 18 hr, read-out: Minimal Inhibitory Concentration
Experimental: as §1

[12] = tested on: E. coli GC 6265 TEM-1 (LSU-80-8); test: In vivo antibacterial protection, infected mice; conditions: 168 h, read-out: ED50 mg/kg/SIV
Experimental: Female mice strain CD-1, approximately 18-22 grams, were received from Charles River Laboratories and quarantined 7 days prior to use.
Clinical isolates that were adapted to cause infection in mice were used in the experiment, including infections with strains of E. coli and E. cloacae.
Mice were challenged by injecting 0.5 ml intraperitoneally of a predetermined bacterial inoculum suspended in 5% hog gastric mucin. The bacterial inoculum was equivalent to 10-100 LD50s of the specific infecting strain and was designed to result in death of the non-treated control animals within 7 days. Antibacterial doses (dose concentration prepared by two fold serial dilutions of the antibiotic or antibiotic/compound combination) were dissolved or suspended in 0.2% aqueous agar (subcutaneous administration) or phosphate buffered saline (intravenous administration) and administered intravenously or subcutaneously in the following manner:
a) Subcutaneously: Dose volume of 0.5 ml was administered ½ hr after infection. […]
A detailed explanation of the protocol for the determination of in vivo efficacy follows: • A) The effectiveness of the lacamase inhibitor compound/cefepime combination was evaluated against a cefepime control. […]
The protective effects of the antibacterial agent(s) were measured by the survival of the infected untreated as compared to the treated animals. […]

CO/N=C(\C(=O)N[C@@H]1C(=O)N2C(C(=O)[O-])=C(C[N+]3(C)CCCC3)CS[C@H]12)c1csc(N)n1 [Cefepime]
MIC [1]: 0.5 µg/mL (≈ 1.04 µM)
MIC [2]: 8 µg/mL (≈ 16.6 µM)
MIC [3]: > 16 µg/mL
MIC (E. coli GC 6539 CMY-2): 2 µg/mL (≈ 4.16 µM)
MIC (K. pn GC 6639 (SHV-13)): 8 µg/mL (≈ 16.6 µM)
MIC [4]: 0.12 µg/mL (≈ 0.25 µM)
MIC [5]: 8 µg/mL (≈ 16.6 µM)
MIC [6]: > 16 µg/mL
MIC [7]: 0.06 µg/mL (≈ 0.125 µM)
MIC [8]: 2 µg/mL (≈ 4.16 µM)
MIC [9]: > 16 µg/mL
MIC [10]: 4 µg/mL
MIC [11]: 0.06 µg/mL (≈ 0.125 µM)
ED50 [12]: 0.039 mg/kg
